# Source: paper PMC9415116, “Regionally selective cardiovascular responses to adenosine A2A and A2B receptor activation” (The FASEB Journal, 2022)
# What was measured:
# rat Nluc-A2BR = target: T1, rat Nluc-A2BR (Rattus norvegicus, UniProt P29276, M1L); experiment: NanoBRET competition binding with CA200645, intact HEK293T cells; format: cell-based; details: for Ki: read-out: Nluc-rat A2B (pKD or pKi) (converted)
# T1 construct: gene Adora2b; internal XhoI site removed (silent by primer); transient in intact HEK293T cells
# T1 sequence (P29276 1-332 M1L): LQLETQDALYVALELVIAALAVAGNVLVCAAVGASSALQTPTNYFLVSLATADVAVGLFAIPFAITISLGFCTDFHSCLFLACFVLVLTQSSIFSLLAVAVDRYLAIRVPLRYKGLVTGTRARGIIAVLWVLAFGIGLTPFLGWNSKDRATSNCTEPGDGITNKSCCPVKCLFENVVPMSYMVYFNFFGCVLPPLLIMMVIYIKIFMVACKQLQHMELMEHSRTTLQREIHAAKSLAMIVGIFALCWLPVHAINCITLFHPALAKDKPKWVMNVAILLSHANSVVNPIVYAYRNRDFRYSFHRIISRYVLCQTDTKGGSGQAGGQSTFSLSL
# Description: NanoBRET competition binding with CA200645, intact HEK293T cells on rat Nluc-A2BR
# rat Nluc-A2AR = target: T2, rat Nluc-A2AR (Rattus norvegicus, UniProt P30543, M1L); experiment: as above; format: cell-based; details: read-out: Nluc-rat A2A (pKD or pKi) (converted)
# T2 construct: gene Adora2a; internal BamHI site removed (silent by primer); transient in intact HEK293T cells
# Description: NanoBRET competition binding with CA200645, intact HEK293T cells on rat Nluc-A2AR
# T2 sequence (P30543 whole entry M1L): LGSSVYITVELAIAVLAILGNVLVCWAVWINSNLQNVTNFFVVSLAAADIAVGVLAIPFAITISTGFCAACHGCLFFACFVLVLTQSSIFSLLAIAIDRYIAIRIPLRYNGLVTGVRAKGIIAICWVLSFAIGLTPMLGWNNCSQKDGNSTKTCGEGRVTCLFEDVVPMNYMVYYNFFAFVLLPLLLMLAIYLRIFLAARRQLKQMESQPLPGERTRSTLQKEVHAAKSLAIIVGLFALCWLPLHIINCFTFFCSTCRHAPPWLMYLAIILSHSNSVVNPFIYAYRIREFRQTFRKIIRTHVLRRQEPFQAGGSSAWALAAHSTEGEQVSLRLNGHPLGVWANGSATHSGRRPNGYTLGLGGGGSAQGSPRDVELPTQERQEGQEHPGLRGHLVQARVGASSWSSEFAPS
Ki (rat Nluc-A2BR) [nM],Ki (rat Nluc-A2AR) [nM],SMILES,"Nluc-rat A2B (pKD or pKi) (rat Nluc-A2BR; […] CA200645, HBSS pH […] BSA, […] DMSO, […] °C, […] h, Cheng-Prusoff)"
–,–,"N#Cc1c(N)nc(SCC(N)=O)c(C#N)c1-c1ccc(OCC2CC2)cc1 [BAY 60‐6583, 2‐[[6‐Amino‐3,5‐dicyano‐4‐[4‐(cyclopropylmethoxy)phenyl]‐2‐pyridinyl]thio]‐acetamide]",6.33 ± 0.03
708,–,"Nc1nc2c(cnn2CCc2ccccc2)c2nc(-c3ccco3)nn12 [SCH 58261, 2‐(2‐Furanyl)‐7‐(2‐phenylethyl)‐7H‐pyrazolo[4,3‐e][1,2,4]triazolo[1,5‐c]pyrimidin‐5‐amine]",–
2,490,CCCn1c(=O)[nH]c2nc(-c3ccc(S(=O)(=O)N4CCN(c5ccc(Cl)cc5)CC4)cc3)[nH]c2c1=O [PSB 603],–
537,2880,"CCCn1c(=O)[nH]c2nc(-c3ccc(S(=O)(=O)O)cc3)[nH]c2c1=O [PSB 1115, 4‐(2,3,6,7‐Tetrahydro‐2,6‐dioxo‐1‐propyl‐1H‐purin‐8‐yl)‐benzenesulfonic acid]",–
